Patent US12304916B2, “Thienopyridinyl and thiazolopyridinyl compounds useful as IRAK4 inhibitors” (BRISTOL-MYERS SQUIBB COMPANY, priority 2019, dated 2025)

test system: IL-6 levels in human whole blood stimulated with a TLR2 agonist (lipoteichoic acid); experiment: IRAK4 Whole Blood Assay; assay type: cell-based; details: 10 μg/mL lipoteichoic acid for 5 hours, IL-6 readout
Experimental: Human whole blood containing the anti-coagulant ACD-A was plated in 384-well plate (25 μL/well) and incubated with compounds for 60 minutes at 37° C. in a 5% CO2 incubator. The blood was stimulated with a TLR2 agonist, 10 μg/mL final concentration of lipoteichoic acid (Invivogen, San Diego, CA) in 25 μL RPMI (Gibco) for 5 hours in a 5% CO2 incubator. At the end of the incubation, plates were centrifuged at 2300 rpm for 5 minutes. Supernatants were harvested and analyzed for IL-6 levels by Flow Cytometry beads assay (BD Biosciences, San Jose, CA).

| SMILES | EC50 |
| --- | --- |
| CC(C)Nc1c(C(=O)NC[C@@H](F)C(C)(C)O)cnc2sc(-c3cn[nH]c3)cc12 [Example 21, (R)-N-(2-fluoro-3-hydroxy-3-methylbutyl)-4-(isopropylamino)-2-(1H-pyrazol-4-yl)thieno[2,3-b]pyridine-5-carboxamide] | > 20000 nM |

biological target: IRAK4 (Homo sapiens (Human), UniProt Q9NWZ3); experiment: IRAK4 Inhibition Assay; assay type: biochemical; details: ATP 500 μM; IRAK4 0.6 nM; 60 min at room temperature
Sequence (Q9NWZ3 whole entry, species assumed): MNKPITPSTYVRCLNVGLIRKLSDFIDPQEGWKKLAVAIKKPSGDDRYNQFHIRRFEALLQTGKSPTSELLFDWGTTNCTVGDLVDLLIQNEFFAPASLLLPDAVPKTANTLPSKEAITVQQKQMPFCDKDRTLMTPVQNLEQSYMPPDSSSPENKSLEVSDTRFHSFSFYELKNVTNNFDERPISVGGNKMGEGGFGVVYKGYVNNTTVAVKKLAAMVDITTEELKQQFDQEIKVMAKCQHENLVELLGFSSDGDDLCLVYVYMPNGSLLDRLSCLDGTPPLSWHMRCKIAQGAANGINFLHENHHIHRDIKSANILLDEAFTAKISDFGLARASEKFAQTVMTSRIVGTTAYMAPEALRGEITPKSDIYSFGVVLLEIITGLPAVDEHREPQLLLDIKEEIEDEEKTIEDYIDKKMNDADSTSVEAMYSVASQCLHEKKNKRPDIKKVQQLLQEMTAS
Experimental: The assays were performed in U-bottom 384-well plates. The final assay volume was 30 μL prepared from 15 μL additions of enzyme and substrates (fluoresceinated peptide and ATP) and test compounds in assay buffer (20 mM HEPES pH 7.2, 10 mM MgCl2, 0.015% Brij 35 and 4 mM DTT). The reaction was initiated by the combination of IRAK4 with substrates and test compounds. The reaction mixture was incubated at room temperature for 60 min. and terminated by adding 45 μL of 35 mM EDTA to each sample. The reaction mixture was analyzed on the Caliper LABCHIP® 3000 (Caliper, Hopkinton, MA) by electrophoretic separation of the fluorescent substrate and phosphorylated product. Inhibition data were calculated by comparison to no enzyme control reactions for 100% inhibition and vehicle-only reactions for 0% inhibition. The final concentrations of reagents in the assays are ATP, 500 μM; FL-IPTSPITTTYFFFKKK peptide 1.5 μM; IRAK4, 0.6 nM; and DMSO, 1.6%.

| SMILES | IC50 |
| --- | --- |
| CC(C)Nc1c(C(=O)NC[C@@H](F)C(C)(C)O)cnc2sc(-c3cn[nH]c3)cc12 [Example 21, (R)-N-(2-fluoro-3-hydroxy-3-methylbutyl)-4-(isopropylamino)-2-(1H-pyrazol-4-yl)thieno[2,3-b]pyridine-5-carboxamide] | 2.4 nM |
| Cc1cc(CNC(=O)c2cnc3sc(-c4cncs4)cc3c2NC(C)C)on1 [Example 35, 4-(isopropylamino)-N-((3-methylisoxazol-5-yl)methyl)-2-(thiazol-5-yl)thieno[2,3-b]pyridine-5-carboxamide] | 59.7 nM |
| CC(C)Nc1c(C(=O)N[C@H]2CC[C@H](O)CC2)cnc2sc(-c3cncs3)cc12 [Example 36, N-((1r,4r)-4-hydroxycyclohexyl)-4-(isopropylamino)-2-(thiazol-5-yl)thieno[2,3-b]pyridine-5-carboxamide] | 20.6 nM |
| CC(C)Nc1c(C(=O)NCCC2(CO)CC2)cnc2sc(-c3cncs3)cc12 [Example 37, N-(2-(1-(hydroxymethyl)cyclopropyl)ethyl)-4-(isopropylamino)-2-(thiazol-5-yl)thieno[2,3-b]pyridine-5-carboxamide] | 384 nM |
| CC(C)Nc1c(C(=O)NC(CCO)C2CC2)cnc2sc(-c3cncs3)cc12 (stereo not shown) [Example 39, N-(1-cyclopropyl-3-hydroxypropyl)-4-(isopropylamino)-2-(thiazol-5-yl)thieno[2,3-b]pyridine-5-carboxamide] | 554 nM |
| CC(C)Nc1c(C(=O)N[C@H](C)CCO)cnc2sc(-c3cncs3)cc12 [Example 40, (R)-N-(4-hydroxybutan-2-yl)-4-(isopropylamino)-2-(thiazol-5-yl)thieno[2,3-b]pyridine-5-carboxamide] | 126 nM |
| CC(C)Nc1c(C(=O)NCc2cocn2)cnc2sc(-c3cncs3)cc12 [Example 41, 4-(isopropylamino)-N-(oxazol-4-ylmethyl)-2-(thiazol-5-yl) thieno[2,3-b]pyridine-5-carboxamide] | 21.6 nM |
| CC(=O)N[C@H]1CC[C@H](NC(=O)c2cnc3sc(-c4cncs4)cc3c2NC(C)C)CC1 [Example 45, N-((1r,4r)-4-acetamidocyclohexyl)-4-(isopropylamino)-2-(thiazol-5-yl)thieno[2,3-b]pyridine-5-carboxamide] | 3.7 nM |
| CC(C)Nc1c(C(=O)NCC(C)(C)CO)cnc2sc(-c3cncs3)cc12 [Example 46, N-(3-hydroxy-2,2-dimethylpropyl)-4-(isopropylamino)-2-(thiazol-5-yl)thieno[2,3-b]pyridine-5-carboxamide] | 272 nM |
| CC(C)Nc1c(C(=O)NCC2(CO)COC2)cnc2sc(-c3cncs3)cc12 [Example 47, N-((3-(hydroxymethyl)oxetan-3-yl)methyl)-4-(isopropylamino)-2-(thiazol-5-yl)thieno[2,3-b]pyridine-5-carboxamide] | 215 nM |
| C[C@H](CCO)NC(=O)c1cnc2sc(-c3cncs3)cc2c1Nc1cnn(CC(F)F)c1 [Example 48, (R)-4-((1-(2,2-difluoroethyl)-1H-pyrazol-4-yl)amino)-N-(4-hydroxybutan-2-yl)-2-(thiazol-5-yl)thieno[2,3-b]pyridine-5-carboxamide] | 1880 nM |
| O=C(N[C@H]1CC[C@H](O)CC1)c1cnc2sc(-c3cncs3)cc2c1Nc1cnn(CC(F)F)c1 [Example 49, 4-((1-(2,2-difluoroethyl)-1H-pyrazol-4-yl)amino)-N-((1s,4s)-4-hydroxycyclohexyl)-2-(thiazol-5-yl)thieno[2,3-b]pyridine-5-carboxamide] | 408 nM |
| COCCNC(=O)c1cnc2sc(-c3cncs3)cc2c1Nc1cnn(CC(F)F)c1 [Example 51, 4-((1-(2,2-difluoroethyl)-1H-pyrazol-4-yl)amino)-N-(2-methoxyethyl)-2-(thiazol-5-yl)thieno[2,3-b]pyridine-5-carboxamide] | 1230 nM |
| CC(C)(O)[C@H](F)CNC(=O)c1cnc2sc(-c3cncs3)cc2c1Nc1cnn(CC(F)F)c1 [Example 52, (R)-4-((1-(2,2-difluoroethyl)-1H-pyrazol-4-yl)amino)-N-(2-fluoro-3-hydroxy-3-methylbutyl)-2-(thiazol-5-yl)thieno[2,3-b]pyridine-5-carboxamide] | 72.8 nM |
| O=C(N[C@H]1CC[C@H](O)CC1)c1cnc2sc(-c3cncs3)cc2c1NC1COC1 [Example 54, N-((1s,4s)-4-hydroxycyclohexyl)-4-(oxetan-3-ylamino)-2-(thiazol-5-yl)thieno[2,3-b]pyridine-5-carboxamide] | 193 nM |
| O=C(NCc1ncn[nH]1)c1cnc2sc(-c3cncs3)cc2c1NC1COC1 [Example 55, N-((1H-1,2,4-triazol-5-yl)methyl)-4-(oxetan-3-ylamino)-2-(thiazol-5-yl)thieno[2,3-b]pyridine-5-carboxamide] | 200 nM |
| COc1ncc(-c2cc3c(NC(C)C)c(C(=O)NC[C@@H](F)C(C)(C)O)cnc3s2)s1 [Example 58, (R)-N-(2-fluoro-3-hydroxy-3-methylbutyl)-4-(isopropylamino)-2-(2-methoxythiazol-5-yl)thieno[2,3-b]pyridine-5-carboxamide] | 53.5 nM |
| CC(C)Nc1c(C(=O)NC2CC(O)C2)cnc2sc(-c3cncs3)cc12 (stereo not shown) [Example 61, N-(3-hydroxycyclobutyl)-4-(isopropylamino)-2-(thiazol-5-yl) thieno[2,3-b]pyridine-5-carboxamide] | 97.5 nM |
| CC(C)Nc1c(C(=O)NC[C@@H](F)C(C)(C)O)cnc2sc(-c3cscn3)cc12 [Example 62, (R)-N-(2-fluoro-3-hydroxy-3-methylbutyl)-4-(isopropylamino)-2-(thiazol-4-yl)thieno[2,3-b]pyridine-5-carboxamide] | 35.1 nM |
| CC(C)Nc1c(C(=O)NC[C@@H](F)C(C)(C)O)cnc2sc(-c3ccc(C#N)nc3)cc12 [Example 64, (R)-2-(6-cyanopyridin-3-yl)-N-(2-fluoro-3-hydroxy-3-methylbutyl)-4-(isopropylamino)thieno[2,3-b]pyridine-5-carboxamide] | 8.5 nM |
| CC(C)Nc1c(C(=O)NC[C@@H](F)C(C)(C)O)cnc2sc(-c3cncc(C#N)c3)cc12 [Example 65, (R)-2-(5-cyanopyridin-3-yl)-N-(2-fluoro-3-hydroxy-3-methylbutyl)-4-(isopropylamino)thieno[2,3-b]pyridine-5-carboxamide] | 18.6 nM |
| CC(=O)N1CCC(NC(=O)c2cnc3sc(-c4ccc(=O)[nH]c4)cc3c2NC(C)C)CC1 [Example 66, N-(1-acetylpiperidin-4-yl)-4-(isopropylamino)-2-(6-oxo-1,6-dihydropyridin-3-yl)thieno[2,3-b]pyridine-5-carboxamide] | 37.1 nM |
| CC(C)Nc1c(C(=O)NCCCNS(C)(=O)=O)cnc2sc(-c3ccc(=O)[nH]c3)cc12 [Example 67, 4-(isopropylamino)-N-(3-(methylsulfonamido)propyl)-2-(6-oxo-1,6-dihydropyridin-3-yl)thieno[2,3-b]pyridine-5-carboxamide] | 42.8 nM |
| CC(C)Nc1c(C(=O)NCC2CCS(=O)(=O)C2)cnc2sc(-c3cncs3)cc12 (stereo not shown) [Example 69, N-((1,1-dioxidotetrahydrothiophen-3-yl)methyl)-4-(isopropylamino)-2-(thiazol-5-yl)thieno[2,3-b]pyridine-5-carboxamide] | 72.2 nM |
| CC(C)Nc1c(C(=O)NCCC2CCNC2)cnc2sc(-c3ccc(=O)[nH]c3)cc12 (stereo not shown) [Example 70, 4-(isopropylamino)-2-(6-oxo-1,6-dihydropyridin-3-yl)-N-(2-(pyrrolidin-3-yl)ethyl)thieno[2,3-b]pyridine-5-carboxamide] | 22.6 nM |
| CC(C)Nc1c(C(=O)NCCN2CCS(=O)(=O)CC2)cnc2sc(-c3ccc(=O)[nH]c3)cc12 [Example 73, N-(2-(1,1-dioxidothiomorpholino)ethyl)-4-(isopropylamino)-2-(6-oxo-1,6-dihydropyridin-3-yl)thieno[2,3-b]pyridine-5-carboxamide] | 24.2 nM |
| CC(C)Nc1c(-n2cc(CCC(C)(C)O)nn2)cnc2sc(-c3cccnc3)cc12 [Example 74, 4-(1-(4-(isopropylamino)-2-(pyridin-3-yl)thieno[2,3-b]pyridin-5-yl)-1H-1,2,3-triazol-4-yl)-2-methylbutan-2-ol] | 171 nM |
| CC(C)Nc1c(-n2cc(CCC(C)(C)O)nn2)cnc2sc(-c3ccncc3)cc12 [Example 75, 4-(1-(4-(isopropylamino)-2-(pyridin-4-yl)thieno[2,3-b]pyridin-5-yl)-1H-1,2,3-triazol-4-yl)-2-methylbutan-2-ol] | 44.8 nM |
| CC(C)CCc1cn(-c2cnc3sc(-c4ccncc4)cc3c2NC(C)C)nn1 [Example 76, 5-(4-isopentyl-1H-1,2,3-triazol-1-yl)-N-isopropyl-2-(pyridin-4-yl)thieno[2,3-b]pyridin-4-amine] | 44.1 nM |
| CC(C)CCc1nc(-c2cnc3sc(-c4cncs4)cc3c2NC(C)C)n[nH]1 [Example 77, 5-(5-isopentyl-1H-1,2,4-triazol-3-yl)-N-isopropyl-2-(thiazol-5-yl)thieno[2,3-b]pyridin-4-amine] | 289 nM |
